ChEMBL document CHEMBL1949499, “Nicotinic acids: liver-targeted SCD inhibitors with preclinical anti-diabetic efficacy” (Bioorg Med Chem Lett, 2011)

Experiments:
[1] = Plasma concentration in C57/BL6 mouse at 30 mg/kg, po after 24 hrs; format: ADME, organism-based; parameters: dose 30 mg/kg, route oral
[2] = Drug uptake in C57/BL6 mouse kidney at 30 mg/kg, po after 24 hrs; format: ADME, organism-based; parameters: dose 30 mg/kg, route oral; conditions: read-out: Drug uptake
[3] = Drug uptake in C57/BL6 mouse cerebellum at 30 mg/kg, po after 6 hrs; format: ADME, organism-based; parameters: dose 30 mg/kg, route oral; conditions: read-out: Drug uptake
[4] = Drug uptake in C57/BL6 mouse left median liver lobe at 30 mg/kg, po after 24 hrs; format: ADME, organism-based; parameters: dose 30 mg/kg, route oral; conditions: read-out: Drug uptake
[5] = Drug uptake in C57/BL6 mouse skin at 30 mg/kg, po after 2 hrs; format: ADME, organism-based, Zone of skin; parameters: dose 30 mg/kg, route oral; conditions: read-out: Drug uptake
[6] = Drug uptake in C57/BL6 mouse harderian glands at 30 mg/kg, po after 24 hrs; format: ADME, organism-based, Harderian gland; parameters: dose 30 mg/kg, route oral; conditions: read-out: Drug uptake
[7] = Plasma concentration in high sucrose/fat free diet fed C57/BL6 mouse at 10 mg/kg, po after 3 hrs; format: ADME, organism-based; parameters: dose 10 mg/kg, route oral
[8] = Drug uptake in C57/BL6 mouse skin at 30 mg/kg, po after 6 hrs; format: ADME, organism-based, Zone of skin; parameters: dose 30 mg/kg, route oral; conditions: read-out: Drug uptake
[9] = Plasma clearance in Sprague-Dawley rat at 10 mg/kg, po and 2 mg/kg, iv; format: ADME, organism-based
[10] = Plasma concentration in high sucrose/fat free diet fed C57/BL6 mouse at 100 mg/kg, po after 3 hrs; format: ADME, organism-based; parameters: dose 100 mg/kg, route oral
Mus musculus [11] = assay: Inhibition of SCD activity in high sucrose/fat free diet fed C57/BL6 mouse liver assessed as reduction in conversion of [14C]stearic acid to [14C]oleic acid at 100 mg/kg, po; format: functional
[12] = Drug uptake in C57/BL6 mouse left median liver lobe at 30 mg/kg, po after 2 hrs; format: ADME, organism-based; parameters: dose 30 mg/kg, route oral; conditions: read-out: Drug uptake
[13] = Plasma concentration in C57/BL6 mouse at 30 mg/kg, po after 6 hrs; format: ADME, organism-based; parameters: dose 30 mg/kg, route oral
[14] = Drug uptake in C57/BL6 mouse kidney at 30 mg/kg, po after 6 hrs; format: ADME, organism-based; parameters: dose 30 mg/kg, route oral; conditions: read-out: Drug uptake
[15] = Drug uptake in high sucrose/fat free diet fed C57/BL6 mouse liver at 100 mg/kg, po after 3 hrs; format: ADME, organism-based; parameters: dose 100 mg/kg, route oral; conditions: read-out: Drug uptake
[16] = Drug uptake in C57/BL6 mouse left epididymal fat at 30 mg/kg, po after 24 hrs; format: ADME, organism-based, Epididymal fat pad; parameters: dose 30 mg/kg, route oral; conditions: male, read-out: Drug uptake
[17] = Half life in Sprague-Dawley rat at 10 mg/kg, po and 2 mg/kg, iv; format: ADME, organism-based; conditions: in vivo
[18] = Drug uptake in C57/BL6 mouse left epididymal fat at 30 mg/kg, po after 6 hrs; format: ADME, organism-based, Epididymal fat pad; parameters: dose 30 mg/kg, route oral; conditions: male, read-out: Drug uptake
Nucleic Acid = assay: Ratio of drug uptake in left median liver lobe to harderian gland in C57/BL6 mouse at 30 mg/kg, po after 6 hrs; format: ADME, organism-based; parameters: dose 30 mg/kg, route oral; conditions: in vivo
[19] = Drug uptake in C57/BL6 mouse cerebellum at 30 mg/kg, po after 2 hrs; format: ADME, organism-based; parameters: dose 30 mg/kg, route oral; conditions: read-out: Drug uptake
[20] = Oral bioavailability in C57/BL6 mouse plasma at 10 mg/kg; format: ADME, organism-based
[21] = Drug uptake in C57/BL6 mouse heart at 30 mg/kg, po after 24 hrs; format: ADME, organism-based; parameters: dose 30 mg/kg, route oral; conditions: read-out: Drug uptake
[22] = Drug uptake in C57/BL6 mouse heart at 30 mg/kg, po after 6 hrs; format: ADME, organism-based; parameters: dose 30 mg/kg, route oral; conditions: read-out: Drug uptake
[23] = Volume of distribution at steady state in C57/BL6 mouse at 10 mg/kg, po and 2 mg/kg, iv; format: ADME, organism-based; conditions: in vivo, read-out: Vdss
[24] = Drug uptake C57/BL6 in mouse left median liver lobe at 30 mg/kg, po after 6 hrs; format: ADME, organism-based; parameters: dose 30 mg/kg, route oral; conditions: read-out: Drug uptake
[25] = Plasma clearance in C57/BL6 mouse at 10 mg/kg, po and 2 mg/kg, iv; format: ADME, organism-based
[26] = Drug uptake in C57/BL6 mouse heart at 30 mg/kg, po after 2 hrs; format: ADME, organism-based; parameters: dose 30 mg/kg, route oral; conditions: read-out: Drug uptake
[27] = AUC in Sprague-Dawley rat plasma at 10 mg/kg, po and 2 mg/kg, iv; format: ADME, organism-based
[28] = Half life in C57/BL6 mouse at 10 mg/kg, po and 2 mg/kg, iv; format: ADME, organism-based; conditions: in vivo
Mus musculus [29] = assay: Inhibition of SCD activity in high sucrose/fat free diet fed po dosed C57/BL6 mouse liver assessed as reduction in conversion of [14C]stearic acid to [14C]oleic acid; format: functional, organism-based
Mus musculus [30] = assay: Acute antidiabetic activity in high fat diet fed C57/BL6 mouse eDIO model assessed as increase in glucose clearance at 100 mg/kg, po administered 1 hr prior to glucose challenge by oGTT assay; format: functional
[31] = target: ATP-binding cassette sub-family C member 2 (Homo sapiens, UniProt Q92887); assay: Binding affinity to MRP2 expressed in MDCK2 cells coexpressing OATP1B3; format: cell-based; conditions: dog, mdck-ii
Mus musculus [32] = assay: Acute antidiabetic activity in high fat diet fed C57/BL6 mouse eDIO model assessed as increase in glucose clearance at 30 mg/kg, po administered 1 hr prior to glucose challenge by oGTT assay; format: functional
[33] = Drug uptake in C57/BL6 mouse harderian glands at 30 mg/kg, po after 6 hrs; format: ADME, organism-based, Harderian gland; parameters: dose 30 mg/kg, route oral; conditions: read-out: Drug uptake

Sequence of ATP-binding cassette sub-family C member 2 (Q92887 whole entry): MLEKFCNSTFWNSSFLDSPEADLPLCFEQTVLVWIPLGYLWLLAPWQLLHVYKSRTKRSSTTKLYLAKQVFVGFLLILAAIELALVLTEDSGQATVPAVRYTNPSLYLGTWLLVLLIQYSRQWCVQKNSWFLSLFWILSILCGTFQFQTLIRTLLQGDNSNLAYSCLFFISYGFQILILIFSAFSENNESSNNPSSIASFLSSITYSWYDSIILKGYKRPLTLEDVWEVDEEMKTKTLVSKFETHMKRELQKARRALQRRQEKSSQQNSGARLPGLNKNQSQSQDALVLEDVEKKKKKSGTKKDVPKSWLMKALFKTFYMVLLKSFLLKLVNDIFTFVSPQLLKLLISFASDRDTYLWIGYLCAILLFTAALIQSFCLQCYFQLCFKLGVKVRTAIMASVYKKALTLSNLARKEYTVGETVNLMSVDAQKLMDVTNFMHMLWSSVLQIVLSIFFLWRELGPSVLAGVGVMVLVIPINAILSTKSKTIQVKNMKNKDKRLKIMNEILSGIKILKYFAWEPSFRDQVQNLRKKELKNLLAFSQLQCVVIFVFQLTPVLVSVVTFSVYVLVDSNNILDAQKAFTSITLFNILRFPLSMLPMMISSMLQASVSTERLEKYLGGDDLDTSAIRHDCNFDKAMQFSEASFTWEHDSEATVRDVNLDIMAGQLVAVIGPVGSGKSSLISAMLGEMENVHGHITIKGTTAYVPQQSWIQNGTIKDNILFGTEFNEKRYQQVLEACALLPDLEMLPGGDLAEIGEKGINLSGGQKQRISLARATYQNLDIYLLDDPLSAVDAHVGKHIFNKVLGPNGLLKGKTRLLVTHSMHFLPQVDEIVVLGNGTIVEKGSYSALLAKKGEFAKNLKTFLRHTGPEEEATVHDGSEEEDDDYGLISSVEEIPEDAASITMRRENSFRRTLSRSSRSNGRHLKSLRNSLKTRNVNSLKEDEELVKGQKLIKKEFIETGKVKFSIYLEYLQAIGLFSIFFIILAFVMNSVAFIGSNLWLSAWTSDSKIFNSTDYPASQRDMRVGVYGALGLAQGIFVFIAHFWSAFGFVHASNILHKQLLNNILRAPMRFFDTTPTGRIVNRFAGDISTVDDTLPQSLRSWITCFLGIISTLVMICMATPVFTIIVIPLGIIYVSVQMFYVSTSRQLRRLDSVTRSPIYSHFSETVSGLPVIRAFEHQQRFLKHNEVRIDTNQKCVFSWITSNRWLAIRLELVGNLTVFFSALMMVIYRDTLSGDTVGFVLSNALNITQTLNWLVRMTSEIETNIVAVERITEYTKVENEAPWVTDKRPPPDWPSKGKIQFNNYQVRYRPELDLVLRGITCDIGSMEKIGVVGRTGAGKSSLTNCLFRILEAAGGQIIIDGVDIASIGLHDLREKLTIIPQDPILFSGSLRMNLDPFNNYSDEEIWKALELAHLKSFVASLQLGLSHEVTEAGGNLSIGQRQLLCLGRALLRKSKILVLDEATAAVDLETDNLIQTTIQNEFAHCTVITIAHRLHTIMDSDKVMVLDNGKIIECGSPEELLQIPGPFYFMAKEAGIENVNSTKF

O=C(O)c1cncc(-c2ccc(N3CCC(Oc4cc(F)ccc4Br)CC3)nn2)c1
concentration at 24 h [1]: 5 nM | concentration at 24 h [2]: 29 nM | concentration at 6 h [3]: 17 nM | concentration at 24 h [4]: 32 nM | concentration at 2 h [5]: 170 nM | concentration at 24 h [6]: 5 nM | concentration at 3 h [7]: 120 nM | concentration at 6 h [8]: 55 nM | clearance [9]: 8.6 mL/min/kg | concentration at 3 h [10]: 4390 nM | inhibition in vivo at 100 mg/kg (Mus musculus [11]): 86% | concentration at 2 h [12]: 4390 nM | concentration at 6 h [13]: 626 nM | concentration at 6 h [14]: 1920 nM | concentration at 3 h [15]: 53000 nM | concentration at 24 h [16]: 45 nM | half-life [17]: 84 min | concentration at 6 h [18]: 111 nM | Ratio (Nucleic Acid): > 50 | concentration at 2 h [19]: 10 nM | bioavailability [20]: 8% | concentration at 24 h [21]: 32 nM | concentration at 6 h [22]: 333 nM | Vd [23]: 1.12 L/kg | concentration at 6 h [24]: 5200 nM | clearance [25]: 81 mL/min/kg | concentration at 2 h [26]: 177 nM | AUC [27]: 17.8 µM·h | half-life [28]: 24 min | inhibition (Mus musculus [29]): Dose-dependent effect | Activity (Mus musculus [30]): 90% | Activity [31]: Active | Activity (Mus musculus [32]): 59% | concentration at 6 h [33]: 98 nM
